Several values for one entry are separate records, joined by “and”; a condition that tells them apart may be missing. Equal entries are not always repeated. Toxic doses and inconclusive results are not listed.
Test system: L1210 leukemia ip in BDF1 mice, survival T/C
Experiment: NCI In Vivo Anticancer Drug Screen. Data for tumor model L1210 Leukemia (intraperitoneal) in B6D2F1 (BDF1) mice
Conditions: endpoint: mean survival time, higher = longer survival
How it was run: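 Mice bearing the transplanted tumor received compound or vehicle. Survival of the treated group was divided by that of the vehicle-treated control group to give the ratio.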

[1] = dose: 125.0 mg/kg/injection, schedule: Q01DX Z (ip), vehicle: methylcellulose (MC)
[2] = dose: 100.0 mg/kg/injection, schedule: Q01DX009 (ip), vehicle: Klucel (hydroxypropylcellulose) (HPC)
[3] = dose: 100.0 mg/kg/injection, schedule: Q04DX003 (ip), vehicle: Klucel (hydroxypropylcellulose) (HPC)
[4] = dose: 200.0 mg/kg/injection, schedule: Q01DX009 (ip), vehicle: Klucel (hydroxypropylcellulose) (HPC)
[5] = dose: 200.0 mg/kg/injection, schedule: Q04DX003 (ip), vehicle: Klucel (hydroxypropylcellulose) (HPC)
[6] = dose: 400.0 mg/kg/injection, schedule: Q01DX009 (ip), vehicle: Klucel (hydroxypropylcellulose) (HPC)
[7] = dose: 400.0 mg/kg/injection, schedule: Q04DX003 (ip), vehicle: Klucel (hydroxypropylcellulose) (HPC)
[8] = dose: 100.0 mg/kg/injection, schedule: Q01DX001 (ip), vehicle: saline
[9] = dose: 200.0 mg/kg/injection, schedule: Q01DX001 (ip), vehicle: saline
[10] = dose: 400.0 mg/kg/injection, schedule: Q01DX001 (ip), vehicle: saline
[11] = dose: 100.0 mg/kg/injection, schedule: Q01DX009 (ip), vehicle: saline
[12] = dose: 100.0 mg/kg/injection, schedule: Q04DX003 (ip), vehicle: saline
[13] = dose: 200.0 mg/kg/injection, schedule: Q01DX009 (ip), vehicle: saline
[14] = dose: 200.0 mg/kg/injection, schedule: Q04DX003 (ip), vehicle: saline
[15] = dose: 400.0 mg/kg/injection, schedule: Q04DX003 (ip), vehicle: saline
[16] = dose: 100.0 mg/kg/injection, schedule: Q01DX001 (ip), vehicle: carboxymethylcellulose (CMC)
[17] = dose: 200.0 mg/kg/injection, schedule: Q01DX001 (ip), vehicle: carboxymethylcellulose (CMC)
[18] = dose: 400.0 mg/kg/injection, schedule: Q01DX001 (ip), vehicle: carboxymethylcellulose (CMC)

SMILES: CC(=O)OCC(C(=O)O)(c1ccccc1)c1ccccc1
- T/C (dose: 55.0 mg/kg/injection, schedule: Q01DX Z (ip), vehicle: methylcellulose (MC)): 94 % of control
- T/C (dose: 83.0 mg/kg/injection, schedule: Q01DX Z (ip), vehicle: methylcellulose (MC)): 98 % of control
- T/C [1]: 93 % of control

SMILES: CCOC(=O)c1cc([N+](=O)[O-])oc1C
- T/C [2]: 102 % of control
- T/C [3]: 98 % of control
- T/C [4]: 102 % of control
- T/C [5]: 94 % of control
- T/C [6]: 112 % of control
- T/C [7]: 100 % of control

SMILES: O=[N+]([O-])c1ccc(N=Cc2ccccc2)c(O)c1
- T/C [8]: 93 % of control
- T/C [9]: 98 % of control
- T/C [10]: 98 % of control

SMILES: Cc1cc(NC(=O)c2ccc(C(=O)Nc3cc(C)nc4ccccc34)cc2)c2ccccc2n1
- T/C (dose: 100.0 mg/kg/injection, schedule: Q01DX001 (ip), vehicle: other): 102 % of control

SMILES: Nc1ccc(C(=O)c2ccc(N)cc2)cc1
- T/C [2]: 98 % of control
- T/C (dose: 100.0 mg/kg/injection, schedule: Q04DX002 (ip), vehicle: Klucel (hydroxypropylcellulose) (HPC)): 107 % of control
- T/C [4]: 120 % of control
- T/C (dose: 200.0 mg/kg/injection, schedule: Q04DX002 (ip), vehicle: Klucel (hydroxypropylcellulose) (HPC)): 104 % of control
- T/C [6]: 106 % of control
- T/C (dose: 400.0 mg/kg/injection, schedule: Q04DX002 (ip), vehicle: Klucel (hydroxypropylcellulose) (HPC)): 96 % of control

SMILES: Cc1ccc(S(=O)(=O)OCC2C3CCC(c4ccccc43)C2COS(=O)(=O)c2ccc(C)cc2)cc1 (centres undefined)
- T/C [3]: 109 % of control
- T/C [5]: 105 % of control
- T/C [7]: 88 % of control

SMILES: CC(C)(C)c1ccc(Sc2cnccc2C(C)(C)C)cc1
- T/C (dose: 87.5 mg/kg/injection, schedule: Q04DX003 (ip), vehicle: saline with Tween-80): 97 % of control
- T/C (dose: 175.0 mg/kg/injection, schedule: Q04DX003 (ip), vehicle: saline with Tween-80): 102 % of control
- T/C (dose: 350.0 mg/kg/injection, schedule: Q04DX003 (ip), vehicle: saline with Tween-80): 94 % of control

SMILES: Cc1c[nH]c(=O)cn1
- T/C [11]: 97 % of control
- T/C [12]: 94 % of control
- T/C [13]: 90 % of control
- T/C [14]: 104 % of control
- T/C (dose: 400.0 mg/kg/injection, schedule: Q01DX009 (ip), vehicle: saline): 93 % of control
- T/C [15]: 104 % of control

SMILES: O=c1cc(N2CCOCC2)nc2ccccn12
- T/C [16]: 100 % of control
- T/C [17]: 96 % of control
- T/C [18]: 102 % of control

SMILES: Cn1c(=O)c2[nH]c(C3CCC3)nc2n(C)c1=O
- T/C (dose: 50.0 mg/kg/injection, schedule: Q01DX001 (ip), vehicle: saline): 110 % of control
- T/C [8]: 113 % of control
- T/C [9]: 101 % of control
- T/C [10]: 107 % of control

SMILES: O=C(O)C(O)C(F)(F)F (centres undefined)
- T/C (dose: 31.0 mg/kg/injection, schedule: Q01DX Z (ip), vehicle: methylcellulose (MC)): 102 % of control
- T/C (dose: 62.5 mg/kg/injection, schedule: Q01DX Z (ip), vehicle: methylcellulose (MC)): 96 % of control
- T/C [1]: 100 % of control
- T/C (dose: 250.0 mg/kg/injection, schedule: Q01DX Z (ip), vehicle: methylcellulose (MC)): 97 % of control

SMILES: O=C(O)c1cc([N+](=O)[O-])ccc1Br
- T/C (dose: 50.0 mg/kg/injection, schedule: Q01DX009 (ip), vehicle: Klucel (hydroxypropylcellulose) (HPC)): 89 % of control
- T/C [2]: 86 % of control
- T/C [4]: 93 % of control

SMILES: Cc1cc(C)c(O)c(C)c1.[Hg]
- T/C (dose: 12.5 mg/kg/injection, schedule: Q01DX001 (ip), vehicle: Klucel (hydroxypropylcellulose) (HPC)): 87 % of control

SMILES: COc1ccc(C(=O)C(C)C(C)=O)c(OCc2ccccc2)c1OC (centres undefined)
- T/C [16]: 96 % of control
- T/C [17]: 98 % of control
- T/C [18]: 93 % of control

SMILES: COc1ccccc1CN1CCCN(Cc2ccccc2OC)C1c1ccc(N(CCCl)CCCl)cc1C
- T/C [8]: 88 % of control
- T/C [11]: 98 % of control
- T/C [9]: 88 % of control
- T/C [13]: 95 % of control
- T/C [10]: 87 % of control

SMILES: NC(=S)N/N=C/c1ccncc1
- T/C (dose: 50.0 mg/kg/injection, schedule: Q01DX009 (ip), vehicle: saline): 96 % of control
- T/C [11]: 98 % of control
- T/C [12]: 96 % of control
- T/C [13]: 93 % of control
- T/C [14]: 91 % of control

SMILES: [N-]=[N+]=C1C(=O)NC(=O)N2C3CC(O)C(COC12)O3 (centres undefined)
- T/C (dose: 32.0 mg/kg/injection, schedule: Q01DX Z (oral), vehicle: saline): 110 % of control
- T/C (dose: 63.0 mg/kg/injection, schedule: Q01DX Z (oral), vehicle: saline): 105 % of control
- T/C [11]: 111 % of control
- T/C [12]: 102 % of control
- T/C (dose: 125.0 mg/kg/injection, schedule: Q01DX Z (oral), vehicle: saline): 101 % of control
- T/C (dose: 133.0 mg/kg/injection, schedule: Q01DX006 (iv), vehicle: saline): 106 % of control
- T/C (dose: 133.0 mg/kg/injection, schedule: Q01DX Z (ip), vehicle: carboxymethylcellulose (CMC)): 104 % of control
- T/C (dose: 133.0 mg/kg/injection, schedule: Q01DX Z (ip), vehicle: saline): 113 % of control and 119 % of control
- T/C (dose: 200.0 mg/kg/injection, schedule: Q01DX006 (iv), vehicle: saline): 110 % of control
- T/C [13]: 114 % of control
- T/C (dose: 200.0 mg/kg/injection, schedule: Q01DX Z (ip), vehicle: carboxymethylcellulose (CMC)): 105 % of control
- T/C (dose: 200.0 mg/kg/injection, schedule: Q01DX Z (ip), vehicle: saline): 117 % of control
- T/C [14]: 107 % of control
- T/C (dose: 250.0 mg/kg/injection, schedule: Q01DX Z (oral), vehicle: carboxymethylcellulose (CMC)): 108 % of control
- T/C (dose: 250.0 mg/kg/injection, schedule: Q01DX Z (oral), vehicle: saline): 105 % of control and 107 % of control
- T/C (dose: 300.0 mg/kg/injection, schedule: Q01DX006 (iv), vehicle: saline): 118 % of control
- T/C (dose: 300.0 mg/kg/injection, schedule: Q01DX Z (ip), vehicle: saline): 150 % of control
- T/C [15]: 107 % of control
- T/C (dose: 450.0 mg/kg/injection, schedule: Q01DX006 (iv), vehicle: saline): 116 % of control
- T/C (dose: 500.0 mg/kg/injection, schedule: Q01DX Z (oral), vehicle: carboxymethylcellulose (CMC)): 98 % of control
- T/C (dose: 500.0 mg/kg/injection, schedule: Q01DX Z (oral), vehicle: saline): 107 % of control and 117 % of control
- T/C (dose: 675.0 mg/kg/injection, schedule: Q01DX006 (iv), vehicle: saline): 112 % of control
- T/C (dose: 675.0 mg/kg/injection, schedule: Q01DX Z (ip), vehicle: saline): 111 % of control
- T/C (dose: 800.0 mg/kg/injection, schedule: Q01DX006 (iv), vehicle: saline): 102 % of control
- T/C (dose: 1000.0 mg/kg/injection, schedule: Q01DX006 (iv), vehicle: saline): 102 % of control
- T/C (dose: 1000.0 mg/kg/injection, schedule: Q01DX Z (oral), vehicle: carboxymethylcellulose (CMC)): 100 % of control
- T/C (dose: 2000.0 mg/kg/injection, schedule: Q01DX Z (oral), vehicle: carboxymethylcellulose (CMC)): 107 % of control

SMILES: Nc1cc(Cl)[nH]c(=O)n1
- T/C (dose: 100.0 mg/kg/injection, schedule: Q01DX009 (ip), vehicle: gum acacia): 100 % of control
- T/C (dose: 200.0 mg/kg/injection, schedule: Q01DX009 (ip), vehicle: gum acacia): 89 % of control

SMILES: Cc1nc2c(Cl)cc(Cl)cc2s1
- T/C (dose: 100.0 mg/kg/injection, schedule: Q01DX001 (ip), vehicle: acetone): 100 % of control
- T/C [12]: 95 % of control
- T/C (dose: 200.0 mg/kg/injection, schedule: Q01DX001 (ip), vehicle: acetone): 106 % of control
- T/C [14]: 90 % of control
- T/C (dose: 400.0 mg/kg/injection, schedule: Q01DX001 (ip), vehicle: acetone): 102 % of control
- T/C [15]: 92 % of control
